From patent US12006328B2, “Thieno[2,3-d]pyrimidin-4-one derivatives as NMDAR modulators and uses related thereto” (Emory University, priority 2014, dated 2024)

Legend:
[1] = target: GluN2C-containing NMDA receptors (Homo sapiens, UniProt Q05586+Q14957); experiment: Two-electrode voltage-clamp recordings from Xenopus laevis oocytes, GluN2C; type: cell-based; conditions: Table 6; read-out: IC50 (μM) Glu N2C
Method in brief: (§1)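 Xenopus oocytes expressing NMDA receptor subunits recorded by two-electrode voltage clamp 2–7 days after cRNA injection, in solution with 90 NaCl, 3 KCl, 10 HEPES, 0.5 BaCl2, 0.01 EDTA (mM), pH 7.4. Increasing compound concentrations applied with glutamate (100 μM) and glycine (30 μM); response expressed as percent of compound-free response.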

[2] = target: GluN2B-containing NMDA receptors (Homo sapiens, UniProt Q13224); experiment: Two-electrode voltage-clamp recordings from Xenopus laevis oocytes, GluN2B; type: cell-based; conditions: Table 6, printed in the IC50 column; 100 μM compound
Method in brief: as §1

[3] = target: GluN2D-containing NMDA receptors (Homo sapiens, UniProt O15399+Q05586); experiment: Two-electrode voltage-clamp recordings from Xenopus laevis oocytes, GluN2D; type: cell-based; conditions: Table 6; read-out: IC50 (μM) Glu N2D
Method in brief: as §1

[4] = target: T1, GluN1/GluN2B expressing HEK293 cells (Homo sapiens, UniProt Q13224); experiment: Rapid solution exchange patch clamp in transfected HEK293 cells; type: cell-based
T1 construct: expressed in transfected cells; host or cells: HEK293
Procedure: HEK293 cells were transfected used the CaPO4 method. Cells were patched 1-3 days later and lifted into the flow from a theta tube perfusion. […] NMDA receptor currents were activated using 100 μM glutamate and 30 μM glycine.

hippocampal CA1 neurons = experiment: Hippocampal slice whole cell recordings; type: cell-based, mice
Description: Coronal hippocampal brain slices were made from mice (p7-14) using a vibrotome. During slice cutting and recovery, the slices were bathed in an artificial cerebral spinal fluid (slicing aCSF—containing, in mM: 75 NaCl, 2.5 KCl, 1.25 NaH2PO4, 25 NaHCO3, 5 MgCl2 or MgSO4, 0.5 CaCl2, 20 Glucose, 70 Sucrose). Whole cell recordings were made using a different aCSF (recording aCSF—containing, in mM: 130 NaCl, 2.5 KCl, 1.25 NaH2PO4, 25 NaHCO3, 0.1 MgCl2 or MgSO4, 2.5 CaCl2, 20 Glucose), and using a CsGlu internal solution containing, following (in mM): 110 d-gluconic acid, 110 CsOH, 30 CsCl, 5 HEPES, 4 NaCl, 0.5 CaCl2, 2 MgCl2, 5 BAPTA, 2 Na2ATP, and 0.3 NaGTP (pH 7.35).

[5] = 1622-35 10 μM versus control, N 4

T1 sequence (Q13224 27-1484, other chains not shown): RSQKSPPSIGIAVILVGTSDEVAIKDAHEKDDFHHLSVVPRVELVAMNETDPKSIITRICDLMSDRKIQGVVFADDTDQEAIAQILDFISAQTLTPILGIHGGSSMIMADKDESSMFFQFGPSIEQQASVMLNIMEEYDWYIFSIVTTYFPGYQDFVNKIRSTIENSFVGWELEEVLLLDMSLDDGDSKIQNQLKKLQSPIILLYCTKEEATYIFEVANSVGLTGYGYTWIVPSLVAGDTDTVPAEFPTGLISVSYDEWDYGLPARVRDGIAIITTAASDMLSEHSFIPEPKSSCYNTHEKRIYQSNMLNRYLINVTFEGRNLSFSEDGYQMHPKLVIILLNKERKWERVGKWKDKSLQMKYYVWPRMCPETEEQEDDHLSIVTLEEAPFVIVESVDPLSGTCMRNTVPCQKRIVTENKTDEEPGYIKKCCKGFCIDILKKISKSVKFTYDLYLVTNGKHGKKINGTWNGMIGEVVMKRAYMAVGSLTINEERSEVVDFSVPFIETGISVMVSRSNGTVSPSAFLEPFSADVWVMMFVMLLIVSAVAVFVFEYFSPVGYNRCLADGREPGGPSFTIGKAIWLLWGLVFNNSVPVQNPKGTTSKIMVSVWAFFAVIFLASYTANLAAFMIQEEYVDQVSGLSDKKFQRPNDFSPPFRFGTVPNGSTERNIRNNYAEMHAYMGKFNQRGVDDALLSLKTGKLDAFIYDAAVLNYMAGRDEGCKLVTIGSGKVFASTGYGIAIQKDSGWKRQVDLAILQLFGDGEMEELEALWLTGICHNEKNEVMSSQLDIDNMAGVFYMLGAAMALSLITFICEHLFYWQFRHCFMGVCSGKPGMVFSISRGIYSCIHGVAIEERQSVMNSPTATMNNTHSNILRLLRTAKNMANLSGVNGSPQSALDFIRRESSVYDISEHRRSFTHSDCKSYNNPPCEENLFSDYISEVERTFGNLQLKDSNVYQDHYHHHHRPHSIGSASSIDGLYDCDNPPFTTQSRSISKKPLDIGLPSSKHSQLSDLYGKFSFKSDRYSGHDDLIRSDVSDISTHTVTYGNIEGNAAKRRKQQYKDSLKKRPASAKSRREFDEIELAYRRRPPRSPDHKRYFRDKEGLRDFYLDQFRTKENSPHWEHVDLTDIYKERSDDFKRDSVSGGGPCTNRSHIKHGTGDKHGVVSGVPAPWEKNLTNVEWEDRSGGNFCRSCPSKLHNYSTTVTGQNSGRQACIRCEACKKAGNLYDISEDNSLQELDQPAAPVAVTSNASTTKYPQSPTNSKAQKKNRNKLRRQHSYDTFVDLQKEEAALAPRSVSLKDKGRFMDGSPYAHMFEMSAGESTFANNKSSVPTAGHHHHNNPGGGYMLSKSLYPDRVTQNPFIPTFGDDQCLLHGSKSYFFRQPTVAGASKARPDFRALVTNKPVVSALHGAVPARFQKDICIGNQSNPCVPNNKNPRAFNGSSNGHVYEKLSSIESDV
Chain of GluN2B-containing NMDA receptors (Q13224 27-1484, other chains not shown): as above
Chain of GluN2D-containing NMDA receptors (O15399 28-1336, other chains not shown): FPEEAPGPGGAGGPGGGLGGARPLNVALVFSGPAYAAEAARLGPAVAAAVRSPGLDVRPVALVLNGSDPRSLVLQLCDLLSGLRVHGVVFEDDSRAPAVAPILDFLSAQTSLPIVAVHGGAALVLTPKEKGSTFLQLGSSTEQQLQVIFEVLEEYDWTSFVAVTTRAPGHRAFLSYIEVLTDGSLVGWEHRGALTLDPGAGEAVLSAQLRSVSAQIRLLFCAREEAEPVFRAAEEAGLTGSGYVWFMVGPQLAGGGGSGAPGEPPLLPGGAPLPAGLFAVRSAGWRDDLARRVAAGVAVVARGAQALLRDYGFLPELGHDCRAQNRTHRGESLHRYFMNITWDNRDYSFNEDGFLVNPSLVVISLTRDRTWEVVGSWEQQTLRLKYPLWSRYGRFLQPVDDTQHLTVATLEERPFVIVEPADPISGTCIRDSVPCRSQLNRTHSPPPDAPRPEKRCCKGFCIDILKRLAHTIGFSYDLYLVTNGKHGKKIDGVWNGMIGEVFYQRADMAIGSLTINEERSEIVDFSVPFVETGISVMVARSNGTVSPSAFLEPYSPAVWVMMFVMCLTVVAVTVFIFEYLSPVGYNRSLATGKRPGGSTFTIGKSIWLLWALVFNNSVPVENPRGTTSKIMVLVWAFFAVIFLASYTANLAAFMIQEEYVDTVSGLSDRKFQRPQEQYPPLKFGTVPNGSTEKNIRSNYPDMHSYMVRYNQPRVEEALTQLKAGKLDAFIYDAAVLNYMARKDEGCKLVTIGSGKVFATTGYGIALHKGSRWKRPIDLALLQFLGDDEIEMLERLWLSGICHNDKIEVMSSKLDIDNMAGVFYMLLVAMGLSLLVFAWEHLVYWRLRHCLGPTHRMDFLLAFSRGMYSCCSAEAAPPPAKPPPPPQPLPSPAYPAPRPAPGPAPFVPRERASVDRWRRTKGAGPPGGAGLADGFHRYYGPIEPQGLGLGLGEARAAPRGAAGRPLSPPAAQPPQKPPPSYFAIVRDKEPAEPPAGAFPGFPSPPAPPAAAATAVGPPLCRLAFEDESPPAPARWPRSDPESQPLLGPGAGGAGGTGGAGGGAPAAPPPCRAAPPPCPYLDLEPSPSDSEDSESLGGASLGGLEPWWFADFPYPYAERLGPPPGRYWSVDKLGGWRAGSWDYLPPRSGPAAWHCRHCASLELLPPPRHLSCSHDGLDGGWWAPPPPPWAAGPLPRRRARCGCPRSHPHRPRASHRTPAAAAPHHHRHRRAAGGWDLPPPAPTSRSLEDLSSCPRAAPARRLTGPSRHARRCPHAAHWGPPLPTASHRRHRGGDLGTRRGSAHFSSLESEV

Row | IC50 [1] [µM] | % response at 100 μM, Glu N2B [2] [% response at 100 μM] | IC50 [3] [µM] | Decay Time Constant, Fold Increase [4, 5] [fold] | Peak Amplitude, Fold Increase [4, 5] [fold] | Peak Amplitude (pA) ([4]; 1622-35 10 μM, 100 μM glutamate, 30 μM glycine, control 628 ± 237, N 4) | Decay Time Constant ([4]; 1622-35 10 μM, 100 μM glutamate, 30 μM glycine, control 681 ± 142, N 4) [ms] | prolonged deactivation of NMDA-Rs ([4]; rapid solution exchange electrophysiology) | SMILES | effect on channel function and deactivation, excised outside-out patch ([4]; 30 μM 1622-35) | effect on CA1 EPSPs during theta burst stimulation (hippocampal CA1 neurons) | effect on sEPSCs in hippocampal pyramidal neurons (hippocampal CA1 neurons) | total charge transfer of EPSCs (hippocampal CA1 neurons; 10 μM 1622-35) | time course of excitatory post synaptic currents (hippocampal CA1 neurons; 10 μM 1622-35, n=4, control 280±30 ms) [ms]
1 | 46 | 86 | 109 | – | – | – | – | – | COCCN1Cc2c(sc(C)c2C)N(C(=O)c2ccc(OC)cc2)C1 | – | – | – | – | –
2 | 6 | 92 | 35 | – | – | – | – | – | COc1ccc(C(=O)N2CN(CC3CCCO3)Cc3c2sc(C)c3C)cc1 (stereo not shown) | – | – | – | – | –
3 | – | – | – | 5.7 ± 1.9 | 3.4 ± 0.6 | 1694 ± 417 | 3037 ± 166 | roughly 3 fold | Cc1sc2ncn(CC(=O)N3CCCC3)c(=O)c2c1-c1cccc(I)c1 [Compound 1622-35] | increases in GluN1/GluN2 channel function and slows deactivation | enhances the NMDA components of CA1 EPSPs | potentiates only the NMDA component of the sEPSCs | 2.3 times greater than control | 970 ± 220
